Laboratory results reported in patent publication US20150148417A1, “SYNTHESIS AND BIOLOGICAL STUDIES OF AN ISOMERIC MIXTURE OF (E/Z) ISOXYLITONES AND ITS ANALOGUES” (priority 2013, published 2015).
Entries after “also recorded” stand apart in the source; their conditions may differ.

Legend:
scPTZ-induced kindling = experiment: scPTZ-induced chemical kindling model of epileptogenesis; assay type: in vivo, mice; settings: PTZ 50 mg/kg on alternate days
Procedure: Once screened in the acute seizure model, we next evaluated the effect of test compound on the development on epilepsy process using chemical kindling model of NMRI mice. […] The kindling was induced according to the modified method of De Sarro [23]. Each treatment group consists of 12 male NMRI mice ranging from 20-25 g. All the groups except normal control were given sub-convulsive dose of PTZ i.e., 50 mg/kg subcutaneously once on alternate day between 9:30-11:00 am. The normal control and drug control groups received daily intraperitoneal dose of saline (0.5 mL of 0.9% NaCl) and diazepam (7.5 mg/kg) respectively. Likewise, the test group was administered with the isoxylitones mixture (30 mg/kg, i.p.) once daily. On the day of PTZ administration, the treatment of saline, diazepam or isoxylitones were given 30-40 minutes before the PTZ. After each PTZ injection, animals were placed in observation chambers for 1 hour, and behavioral seizure activity was rated. Animals were scored according to a pre-validated scoring scale for the severity of the seizure activity they show. Seizure patterns during the gradual development of kindling are classified into five distinct behavioral stages as shown in the Table 1. The cumulative kindling score was then calculated and the experiments were terminated once the PTZ-control group reached the score 5. […]

PTZ-induced seizures = experiment: Subcutaneous pentylenetetrazole (scPTZ)-induced acute seizure test; assay type: in vivo, mice; settings: for mortality: acute scPTZ-induced mortality test
Procedure: Subcutaneous Pentylenetetrazole (scPTZ) Seizure Model (Acute Seizures Model)
Anticonvulsant effects of isoxylitones using scPTZ acute seizure test was evaluated by administering three doses i.e. 15, 20, and 30 mg/kg to groups of six mice, at least 30-40 min before subcutaneous administration of convulsive doses of PTZ (90 mg/kg). After administering PTZ, the mice were isolated and placed separately in a clear plexiglass chamber and closely observed for an hour for the presence or absence of different types of seizure patterns i.e. onset of body twitches, threshold seizures, generalized seizures with loss of righting reflex, loss of righting reflex with tonic forelimb seizures, loss of righting reflex with tonic forelimb and hind limb seizures (Table 1). The protection from PTZ-induced mortality was also monitored within 24 hours. In all experiments, diazepam (7.5 mg/kg i.p.) was used as a drug control.
Subcutaneous Pentylenetetrazole-Induced Seizure Test (scPTZ-Induced Acute Seizures Model): […]

BDNF protein expression = experiment: BDNF immunohistochemistry in brain samples of chemically kindled mice; assay type: in vivo; settings: for BDNF immunoreactivity in hippocampus and cortex: vs PTZ kindled group; for cumulative BDNF immunoreactivity (ImageJ): vs PTZ kindling
Procedure: Brain samples from chemically kindled mice (as described above) were collected immediately after the last treatment of animals with PTZ. Mice were deeply anesthetized and transcardially perfused with ice-cold 50 mL solution containing phosphate buffer saline (PBS) and heparin [1 mL (5000 I.U.) of heparin added for 500 mL of PBS]. Brains were removed from cranial cavity and were gently rinsed in cold PBS. After washing, they were fixed in ice cold 4% paraformaldehyde solution for 24 hr at 4° C. These samples were then placed in a cryoprotectant i.e. 30% sucrose in PBS until they sank to the bottom of the container. The samples were subsequently stored at −80° C. until further processing. Cryostat sagittal sections were prepared using cryostat (Thermo Electron Corporation, UK), frozen brain sections of 30-μm thickness were cut at −20° C. and collected directly on poly-lysine coated slides. At the time of processing, the cryosections were kept overnight in a humid chamber at room temperature containing PBS buffer. […] On the following day, the sections were re-hydrated by rinsing three times (5 min/rinse) with PBS buffer, followed by incubation in blocking solution (pre-filtered with syringe filter of […] size, consisting of 2% bovine serum albumin (BSA), 2% normal goat serum and 0.1% Tween-20) for 30 min at 37° C. For BDNF IHC, the sections were incubated overnight at 4° C. with the BDNF (N-20) primary antibody sc-546 rabbit IgG (Santa Cruz Biotechnology Inc., USA). Following overnight incubation in the primary antibody, sections were washed three times in PBS and then were incubated with secondary antibody, i.e. Alexa Fluor® 546 goat anti-rabbit IgG secondary antibody (1:100 dilution) from Invitrogen (Life Technologies, NY, USA) for 30 min at 37° C. in the dark, followed by a final washing step with PBS. Negative control slides were prepared without primary antibody to rule out the non-specific tissue binding of antibodies. The stained sections were observed under fluorescent microscope (Nikon ECLIPSE TE2000-S).
The schematic diagrams of brain sections adapted from the mouse brain atlas were used as a visual guide for determining the sub-region boundaries. The image processing program ImageJ (National Institutes of Health, MD, USA) was used to analyze the images. This software helps in multiple imaging system data comparisons, taking density (densitometry) in consideration. For each image, background density was determined and subtracted; the remaining particles were considered to represent BDNF expression. Data were obtained from two sections per […] (n=12 animals per group) and presented as means±S.E.M BDNF immunoreactivity in the amygdala, cortex, dorsal hippocampus and thalamus were centered approximately around 3.6 mm posterior to bregma. Within the hippocampus region, measurements were performed over the layer extending from sub-regions CA1-CA3.

mice [1] = experiment: Acute toxicity (Lorke's test) with gross behavioral observation; assay type: in vivo
Procedure: The isoxylitone was tested for acute toxicity (LD50) using Lorke's test. This method provides the acute toxicity data with the least consumption of animals i.e. initially only 12 animals are required; on obtaining the dose causing the death in 50% animals further three more animals is used at the same dose to get the data statistically significant. Briefly, animals were given different doses of isoxylitone i.e., 50 mg/kg, 75 mg/kg, 100 mg/kg, 500 mg/kg and 1000 mg/kg. After 24 and 48 hours, the maximum dose that had not induced mortality was considered as the maximum non-fatal dose. LD50 values and the corresponding confidence intervals were determined by the Litchfield and Wilcoxon methods (SPSS, version, USA). Data were expressed as mean values±SEM and tested with ANOVA and Tukey-Kramer tests.
They were observed continuously for 2 hours after administration of the test compounds and then every 30 minutes for next 3 hours and finally after 24 hours. The CNS stimulation was judged by the following signs and symptoms:
Locomotor activity, ataxia, clonic & tonic convulsions, sedation, catalepsy, crouching, lacrimation, salivation or any other signs which deviate from the normal behavior of the animal under observation.

mice [2] = experiment: Behavioral analysis (Turner scoring); assay type: in vivo; settings: 30 mg/kg, 50 mg/kg and 100 mg/kg
Procedure: The behavioral analysis was performed adopting the modified procedure as described by Turner, 1972. The effects were recorded using a scoring system (scores were allocated according to the intensity of the symptoms from 0-4) as described by Turner i.e. for stereotype behavior 0: no effect; 1: intermittent; 2: continues 3: intense; 4: severe and for spontaneous activity 0: reduced activity; and 4: increased activity. Animals were transferred into individual cages to allow them to acclimatize to the new environment prior to the experiment.
Blind-testing was employed i.e., the experimenter conducting this study was blinded to the treatment given to the animals in order to avoid any biased interpretations.

SD rats = experiment: Repeated daily dosing toxicity study, 15, 30 and 90 days; assay type: in vivo; settings: 30 mg/kg daily
Procedure: The effective dose of isoxylitones i.e. 30 mg/kg was used in this study. The test was performed in SD rats. The animals divided into three groups and were daily administered with isoxylitones. The first group was sacrificed at the end of 15 days. The second group was sacrificed after 30 days and third group was sacrificed after 90 days. […] At the end, blood was taken via cardiac puncture for biochemistry. Gross anatomical observations were also made for organs as liver, spleen, kidney, heart, and lung and spleen and to examine the organ abnormalities.
The serum levels total bilirubin, GPT, GOT, alkaline phosphatase, and LDH was estimated.

mice [3] = experiment: Inverted screen acute neurotoxicity test; assay type: in vivo; settings: 15, 20, 30, 50, 100 mg/kg i.p.; 5, 30, 60, 120 minutes
Procedure: The neurotoxic manifestation of isoxylitone was determined by inverted screen acute neurotoxicity test developed by Coughenour et al. in 1977. The apparatus consisted of six 13 cm square platforms of 0.6 cm wire mesh supported by metal bars mounted on a metal rod. The rod was supported at both ends and was inverted through an arc of 180°. Mice were pretested on the apparatus the day preceding the experiment, and those failing the task were not used for the subsequent drug test. Testing was carried out at 5, 30, 60 and 120 minutes following i.p. administration of 15 mg/kg, 20 mg/kg, 30 mg/kg, 50 mg/kg and 100 mg/kg of isoxylitone in groups of 6 mice. Mice unable to climb to an upright position for 1 min duration were rated as failures.

[4] = system: c-Fos protein and mRNA expression; experiment: c-Fos protein and mRNA expression in brain samples of kindled mice; assay type: in vivo; settings: 30 mg/kg; compared to PTZ-kindled control animals
Source text: Recently we have evaluated the effects of novel anticonvulsant isomeric compounds isoxylitones on the c-Fos protein and mRNA expression in the brain samples of kindled mice and compared it with the normal and untreated kindled groups.

[5] = diazepam 7.5 mg/kg i.p. before PTZ 90 mg/kg s.c.
[6] = isoxylitones 15 mg/kg i.p. before PTZ 90 mg/kg s.c.
[7] = isoxylitones 20 mg/kg i.p. before PTZ 90 mg/kg s.c.
[8] = isoxylitones 30 mg/kg i.p. before PTZ 90 mg/kg s.c.

## CN1C(=O)CN=C(c2ccccc2)c2cc(Cl)ccc21 [Diazepam, diazepam, reference compound]
scPTZ-induced kindling; diazepam 7.5 mg/kg daily
  development of kindling (seizure pattern): did not exhibit any seizure pattern till the end of the kindling protocol
PTZ-induced seizures; [5]
  Hind Limb Tonic Extension (HLTE): 0 s
  Mortality protection: 100%
  Onset of jerks: 850 ± 20 s
  Rearing & falling: 0 s
BDNF protein expression; diazepam 7.5 mg/kg
  BDNF immunoreactivity in hippocampus and cortex: reduced the levels to controls; also recorded: markedly reduced the immunoreactivity
  cumulative BDNF immunoreactivity (ImageJ): significantly suppressed

## isoxylitones
Mice [1]; 250 mg/kg, approximately 20 minutes after injection
  signs of toxicity / gross behavioral effects: mild cramps and abdominal stretching
Mice [1]; 500 mg/kg
  signs of toxicity / gross behavioral effects: signs of discomfort and mild toxicity; also recorded: Ataxia, complete sedation and drowsiness
Mice [1]; 1000 mg/kg
  signs of toxicity / gross behavioral effects: complete ataxia and sedation
Mice [1]; 50 and 100 mg/kg, over 24 hours
  animals showing signs of toxicity or altered behavior: None of the animals
Mice [2]
  spontaneous motor activity and behavioral signs (ataxia, abdominal contractions, emesis, hyper-excitability, hyper-locomotion, twitches): no alteration in the spontaneous motor activity
scPTZ-induced kindling; isoxylitones 30 mg/kg i.p. once daily, 18 doses, 34 days
  development of kindling (seizure score): did not exhibit seizure score until the end of the kindling experiment; also recorded: complete inhibition in the development of kindling
SD rats
  mortality or morbidity: No mortality or morbidity
Mice [3]
  acute neurotoxicity (motor function): did not show sign of acute neurotoxicity
PTZ-induced seizures; 30 mg/kg
  protection from PTZ-induced loss of righting reflex with tonic-forelimb and tonic hind-limb seizures: 100%
PTZ-induced seizures; 15 and 20 mg/kg
  prevention of PTZ-induced myoclonic twitches: effectively prevent PTZ-induced myoclonic twitches
  protection from PTZ-induced seizure threshold: unable to provide complete protection
PTZ-induced seizures; compounds shown in FIG. 1
  anticonvulsant activity in vivo models: strong anticonvulsant activity
PTZ-induced seizures; isoxylitones 15 mg/kg i.p. 40-50 min before PTZ 90 mg/kg s.c., mean ± SEM
  Onset of jerks: 440 ± 55 s
PTZ-induced seizures; [6]
  Hind Limb Tonic Extension (HLTE): 1260 ± 20 s
  Mortality protection: 66.7%
  Rearing & falling: 990 ± 33 s
PTZ-induced seizures; isoxylitones 15 mg/kg
  mortality: 33.3%
PTZ-induced seizures; [7]
  Hind Limb Tonic Extension (HLTE): 0 s
  Mortality protection: 100%
  Onset of jerks: 580 ± 21 s
  Rearing & falling: 1120 ± 40 s
PTZ-induced seizures; isoxylitones 20 mg/kg
  mortality: 20.8%
PTZ-induced seizures; [8]
  Hind Limb Tonic Extension (HLTE): 0 s
  Mortality protection: 100%
  Onset of jerks: 900 ± 150 s
  Rearing & falling: 0 s
PTZ-induced seizures; isoxylitones 30 mg/kg
  mortality: 0%
PTZ-induced seizures; isoxylitones given prior to PTZ, 15, 20, 30 mg/kg
  protection from different seizure patterns of PTZ-induced seizures (twitches, body jerks, clonus, generalized seizure): dose-related protection
BDNF protein expression; isoxylitones 30 mg/kg
  BDNF immunoreactivity in hippocampus and cortex: returned the enhanced BDNF immunoreactivity from PTZ kindling to the normal control levels
  cumulative BDNF immunoreactivity (ImageJ): significantly suppressed
BDNF protein expression; isoxylitones 30 mg/kg, listed as isoxylitones
  BDNF immunoreactivity in hippocampus and cortex: returned the BDNF levels to normal levels
[4]
  c-Fos expression: significant reduction of c-Fos expression
